Test results: patent US7858084B2, “Methods of treatment with renalase (monoamine oxidase C)” (Yale University, priority 2005, dated 2010)
Like-named read-outs stand apart in the source and are kept apart here.

Assays:
renalase [1] = target: renalase (Rattus norvegicus, UniProt Q5U2W9); conditions: CKD rats compared with control rats
renalase [2] = system: renalase
Description: Horizontal bars at top of figure indicate period of 5 minute epinephrine infusions.

renalase (Rattus norvegicus, UniProt Q5U2W9), sequence (Q5U2W9 18-315): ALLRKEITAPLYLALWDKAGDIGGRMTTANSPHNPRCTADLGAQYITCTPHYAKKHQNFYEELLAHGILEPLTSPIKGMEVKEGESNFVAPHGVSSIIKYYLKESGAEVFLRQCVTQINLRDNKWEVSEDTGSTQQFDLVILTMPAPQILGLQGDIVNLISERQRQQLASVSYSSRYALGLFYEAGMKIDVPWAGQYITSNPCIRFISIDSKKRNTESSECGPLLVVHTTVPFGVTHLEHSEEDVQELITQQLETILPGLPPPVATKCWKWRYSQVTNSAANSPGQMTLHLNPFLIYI

## CNC[C@H](O)c1ccc(O)c(O)c1 [epinephrine]
Renalase [1]
  magnitude and duration of blood renalase activation: significantly lower
Renalase [2]; second administration 30 minutes later
  renalase protein levels in blood: only a modest decline
Renalase [2]; shortly after an initial infusion of epinephrine
  renalase protein levels in blood: drop significantly
Renalase [2]; within ten minutes of the initial infusion
  renalase protein levels in blood: recover and exceed initial protein levels
